The nature of data set [1]: Excipient compatibility screening with sodium thiosulfate (appearance). The settings on record: added to the gel formulation. The data set is classed as physicochemical. The method, then: During preformulation studies, sodium thiosulfate and methionine were identified as effective antioxidants for PTH(1-34). […] Sodium thiosulfate was assayed in the gel formulations listed in Table 21 in the absence of PTH(1-34) in order to identify which excipients were incompatible with sodium thiosulfate. Gel formulations were prepared according to the method described in Example 8. LDPE dropper bottles (5 mL) were purchased from IntraPac Group and over wrap foil (FR-2175) was obtained from Covalence Coated Products. The appearance of all samples was noted initially and after one week of storage at 20° C. protected from light.

Data set [2] can be described thus: Rehydration time of lyophilized polymer gels. The data set is classed as physicochemical. The settings on record: xanthan gum, carrageenan. As to the method: Lyophilized gels were prepared by slowing adding the polymer to water with stirring. For gels with methylcellulose or hydroxypropylcellulose, the polymer was added to hot water and the product was cooled with stirring. The gels took between 1-3 hours to reach maximum viscosity. All gels were allowed to stand for at least 12 hours before any additional processing. If PTH(1-34) was included in the formulation, the peptide was added to an aliquot of gel and gently stirred for 10 minutes.
Prior to lyophilization, gels were filled into Type I glass vials and frozen. Freezing was performed on a freezer shelf (−20° C.) or in a dry ice/ethanol bath (˜−48° C.). The lyophilizer (Ultra-dry Labtop, Freezedry Specialties, Inc) was equipped with a condenser (−50° C.) and an ultra high vacuum pump (DUO 2.5, Pfeiffer Vacuum, Inc) to provide optimal conditions for sublimating the frozen water. No heating or cooling was applied to the lyophilizer shelf. Vials containing lyophilized gels with PTH(1-34) were purged with nitrogen before stoppering (Teflon coated butyl rubber) and sealing (aluminum crimp seal).
A panel of lyophilized polymer gel was screened for the capacity to reform gels following rehydration. […]

Experimental findings from patent US20080299228A1, “TOPICAL COMPOSITIONS COMPRISING A MACROMOLECULE AND METHODS OF USING SAME” (priority 2007, published 2008) are described below.

Turning to `O=S([O-])([O-])=S.[Na+].[Na+]` [sodium thiosulfate], in data set [1], the “compatibility with the gel formulation” value is “a yellowish precipitate formed”.

For the molecule “PTH(1-34): parathyroid hormone fragment 1-34, supplied by Neo-MPS”, the “compatibility with anionic polymers” value in data set [2] is on record as “not compatible with anionic polymers”.
